Results published in article PMC11850127 (The Journal of Biological Chemistry, 2025).
Entries after “also recorded” stand apart in the source; their conditions may differ. Where two headings read alike, the source gives them in different places.

How the values were obtained:
[V13′T]α10 nAChRs [1] = molecular target: T1, [V13′T]α10 nAChRs (Homo sapiens, UniProt Q9GZZ6, V280T); format: cell-based, human (expressed in Xenopus laevis oocytes)
[V13′T]α10 nAChRs [2] = molecular target: T1, [V13′T]α10 nAChRs; assay: cell-based; format: cell-based, human (expressed in Xenopus laevis oocytes)
human α10 nAChRs = format: cell-based, human (expressed in Xenopus laevis oocytes)
homomeric α7 nAChRs = settings: cited from earlier work
α9α10 nAChRs = settings: cited from earlier work
α9 homomers = settings: cited from earlier work
homomeric α10 nAChRs = settings: cited from earlier work
human α10 nAChR = format: cell-based, human (expressed in Xenopus laevis oocytes)
[V13′T]α10 nAChR = format: cell-based, human (expressed in Xenopus laevis oocytes)
[3] = system: uninjected oocytes and oocytes injected with RIC-3 alone; format: cell-based, Xenopus laevis
(α4)2(β2)3 = settings: cited from earlier work
(α4)3(β2)2 = settings: cited from earlier work
homomeric α9 nAChRs [4] = settings: cited from earlier work
homomeric α9 nAChRs [5] = settings: cited from earlier work; remark: listed apart in the source
muscle type nAChRs = settings: cited from earlier work

T1 sequence (Q9GZZ6 25-450 V280T limits assumed): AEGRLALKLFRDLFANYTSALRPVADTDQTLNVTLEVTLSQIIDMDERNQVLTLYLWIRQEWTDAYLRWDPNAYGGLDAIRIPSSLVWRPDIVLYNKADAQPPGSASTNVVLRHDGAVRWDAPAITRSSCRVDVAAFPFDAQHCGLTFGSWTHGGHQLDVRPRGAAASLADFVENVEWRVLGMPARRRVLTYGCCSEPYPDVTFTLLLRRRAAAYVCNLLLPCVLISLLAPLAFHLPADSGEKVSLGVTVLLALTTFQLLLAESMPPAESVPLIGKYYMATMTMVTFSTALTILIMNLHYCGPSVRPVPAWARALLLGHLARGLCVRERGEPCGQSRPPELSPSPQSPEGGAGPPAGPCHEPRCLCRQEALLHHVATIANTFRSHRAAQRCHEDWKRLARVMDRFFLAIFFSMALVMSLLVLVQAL

Compound: CN1[C@@H]2CC[C@H]1C[C@@H](OC(=O)C(CO)c1ccccc1)C2 (stereo partly drawn) [atropine]
- ACh-evoked response, percent of baseline ([V13′T]α10 nAChRs [1]): 230 ± 44%
- enhancement of ACh-evoked response ([V13′T]α10 nAChRs [1]): 230 ± 44%
- onset and reversal of potentiation ([V13′T]α10 nAChRs [1]): rapid onset and reversal
- potentiation of ACh-evoked currents (in words) ([V13′T]α10 nAChRs [1]): rapid, significant potentiation

Compound: C[N+](C)(C)CCO [choline]
- EC50 ([V13′T]α10 nAChRs [2]): 200 µM
- Hill slope ([V13′T]α10 nAChRs [2]): 0.49 (0.41–0.60)
- agonist class ([V13′T]α10 nAChRs [2]): partial agonists
- efficacy of choline relative to nicotine ([V13′T]α10 nAChRs [2]): more efficacious than nicotine
- efficacy relative to ACh ([V13′T]α10 nAChRs [2]): lower efficacy than ACh

Compound: O=C1C[C@@H]2OCC=C3CN4CC[C@]56c7ccccc7N1[C@H]5[C@H]2[C@H]3C[C@H]46 [strychnine]
- effect of strychnine on α10 nAChR function, higher concentrations (human α10 nAChRs): block α10 nAChR function
- effect of strychnine on α10 plus RIC-3 oocytes, lower concentrations (human α10 nAChRs): further substantial increase in expression
- ACh-evoked response, percent of baseline ([V13′T]α10 nAChRs [1]): 572 ± 131%
- effect of strychnine at low concentrations ([V13′T]α10 nAChRs [1]): enhanced [V13′T]α10 responses to ACh
- effect of strychnine at the highest concentration ([V13′T]α10 nAChRs [1]): inhibitory effect; also recorded: almost entirely inhibited
- effect of strychnine on [V13′T]α10 + RIC-3 responses ([V13′T]α10 nAChRs [1]): further enhanced
- enhancement of ACh-evoked response ([V13′T]α10 nAChRs [1]): 572 ± 131%
- maximum enhancement of ACh responses ([V13′T]α10 nAChRs [1]): greater than 5 fold
- potentiation of ACh-evoked currents (in words) ([V13′T]α10 nAChRs [1]): rapid, significant potentiation
- strychnine concentration of maximum potentiation ([V13′T]α10 nAChRs [1]): 1 µM
- block of homomeric α7 nAChRs by strychnine (homomeric α7 nAChRs): blocks
- block of α9α10 nAChRs by strychnine (α9α10 nAChRs): blocks
- block of homomeric α9 nAChRs by strychnine (α9 homomers): blocks
- enabling of function/expression of homomeric α10 nAChRs (homomeric α10 nAChRs): enable the expression of human α10 nAChRs; also recorded: enable functional expression of wild-type α10 homomers in oocytes; also recorded: can enable the function of homomeric α10 mammalian nAChRs

Compound: COc1cc2c(cc1OC)[C@@]13CCN4CC5=CCO[C@H]6CC(=O)N2[C@H]1[C@H]6[C@H]5C[C@H]43 [brucine]
- enabling of function/expression of homomeric α10 nAChRs (homomeric α10 nAChRs): can enable the function of homomeric α10 mammalian nAChRs

Compound: CCN1C[C@]2(COC(=O)c3ccccc3N3C(=O)C[C@H](C)C3=O)CC[C@H](OC)[C@@]34[C@@H]5C[C@H]6[C@H](OC)[C@@H]5[C@](O)(C[C@@H]6OC)[C@@](O)([C@@H](OC)[C@H]23)[C@@H]14 [methyllycaconitine]
- enabling of function/expression of homomeric α10 nAChRs (homomeric α10 nAChRs): can enable the function of homomeric α10 mammalian nAChRs

Compound: CC(=O)OCC[N+](C)(C)C [ACh, Acetylcholine]
- ACh-induced current, average amplitude (human α10 nAChR): 17 nA
- mean ACh-induced response (human α10 nAChR): −7 ± 6 nA
- response to ACh, α10 + RIC-3 versus α10 only (human α10 nAChR): significantly greater than those observed in α10-only injected oocytes; also recorded: significantly larger responses
- range of ACh-induced response (human α10 nAChR; n = 12): −2 to −24 nA
- effect of absence of Ca^2+ on ACh-evoked currents ([V13′T]α10 nAChR): did not substantially reduce ACh-evoked currents
- mean ACh-induced response without actinomycin D ([V13′T]α10 nAChR): −208 ± 227 nA
- range of ACh-induced response ([V13′T]α10 nAChR; n = 12): −117 to −1120 nA
- ACh-induced currents versus those induced by choline or nicotine ([V13′T]α10 nAChRs [2]): significantly larger
- Hill slope ([V13′T]α10 nAChRs [2]): 0.82 (0.67–1.01)
- ACh-induced current in uninjected oocytes ([3]; n = 10): did not produce currents; also recorded: No ACh-induced currents were observed
- ACh-induced current in oocytes injected with RIC-3 alone ([3]; n = 20): did not produce currents; also recorded: No ACh-induced currents were observed
- affinity for acetylcholine ((α4)2(β2)3): high
- affinity for acetylcholine ((α4)3(β2)2): low
- ACh-induced currents (homomeric α9 nAChRs [4]): small currents
- ACh-induced currents (homomeric α9 nAChRs [5]): small currents

Compound: CN1CCC[C@H]1c1cccnc1 [nicotine]
- EC50 ([V13′T]α10 nAChRs [2]): 350 µM
- Hill slope ([V13′T]α10 nAChRs [2]): 0.59 (0.49–0.69)
- agonist class ([V13′T]α10 nAChRs [2]): partial agonist
- efficacy relative to ACh ([V13′T]α10 nAChRs [2]): lower efficacy than ACh
- action of nicotine on wild-type α9α10 nAChRs (α9α10 nAChRs): antagonist

Compound: α-bungarotoxin
- antagonist sensitivity of α10 homomers (human α10 nAChRs): blocked; also recorded: sensitive
- block of ACh-evoked current (human α10 nAChRs): completely blocked; also recorded: sensitive; also recorded: inhibited
- Hill slope ([V13′T]α10 nAChRs [1]): −1.17
- IC50 ([V13′T]α10 nAChRs [1]): 331 nM
- block of α7 homomers by α-bungarotoxin (homomeric α7 nAChRs): blocks
- block of α9α10 nAChRs by α-bungarotoxin (α9α10 nAChRs): sensitive; also recorded: blocks
- sensitivity of α9 to α-bungarotoxin (α9 homomers): sensitive
- block of muscle type nAChRs by α-bungarotoxin (muscle type nAChRs): blocks

Compound: dihydro-β-erythroidine
- effect on ACh-evoked response ([V13′T]α10 nAChRs [1]; 3 μM, 10 min, n = 5): no significant activity; also recorded: not significantly altered
